For the test, the target named is T1, recombinant PDE IVA enzyme (Homo sapiens, UniProt P27815).
T1 construct: made in house; host or cells: yeast (inducible vector)
As to the kind of experiment: Isolated Recombinant Human PDE IVA Enzyme. It is filed as biochemical. The following applies: 0.1 μM [3H]-cAMP, pH 7.5, 30° C. An excerpt: 1. Isolated Recombinant Human PDE IVA Enzyme
A gene encoding human PDE IV has been cloned from human monocytes (Livi, et al., 1990, Molecular and Cellular Biology, 10, 2678). Using similar procedures we have cloned human PDE IV genes from a number of sources including eosinophils, neutrophils, lymphocytes, monocytes, brain and neuronal tissues. These genes have been transfected into yeast using an inducible vector and various recombinant proteins have been expressed which have the biochemical characteristics of PDE IV (Beavo and Reifsnyder, 1990, TIPS, 11, 150). These recombinant enzymes, particularly the human eosinophil recombinant PDE IVA, have been used as the basis of a screen for potent, selective PDE IV inhibitors.
The enzymes were purified to isoenzyme homogeneity using standard chromatographic techniques.
Phosphodiesterase activity was assayed as follows. The reaction was conducted in 150 μl of standard mixture containing (final concentrations): 50 mM 2-[[tris(hydroxymethyl)methyl]amino]-1-ethanesulphonic acid (TES) --NaOH buffer (pH 7.5), 10 mM MgCl2, 0.1 μM [^3 H]-cAMP and vehicle or various concentrations of the test compounds. […] Recovery of [^3 H]-5'AMP was determined using the [^14 C]-5'AMP and all assays were conducted in the linear range of the reaction. Results were expressed as IC50 values.

Molecules are shown by their SMILES.

T1 sequence (P27815 whole entry): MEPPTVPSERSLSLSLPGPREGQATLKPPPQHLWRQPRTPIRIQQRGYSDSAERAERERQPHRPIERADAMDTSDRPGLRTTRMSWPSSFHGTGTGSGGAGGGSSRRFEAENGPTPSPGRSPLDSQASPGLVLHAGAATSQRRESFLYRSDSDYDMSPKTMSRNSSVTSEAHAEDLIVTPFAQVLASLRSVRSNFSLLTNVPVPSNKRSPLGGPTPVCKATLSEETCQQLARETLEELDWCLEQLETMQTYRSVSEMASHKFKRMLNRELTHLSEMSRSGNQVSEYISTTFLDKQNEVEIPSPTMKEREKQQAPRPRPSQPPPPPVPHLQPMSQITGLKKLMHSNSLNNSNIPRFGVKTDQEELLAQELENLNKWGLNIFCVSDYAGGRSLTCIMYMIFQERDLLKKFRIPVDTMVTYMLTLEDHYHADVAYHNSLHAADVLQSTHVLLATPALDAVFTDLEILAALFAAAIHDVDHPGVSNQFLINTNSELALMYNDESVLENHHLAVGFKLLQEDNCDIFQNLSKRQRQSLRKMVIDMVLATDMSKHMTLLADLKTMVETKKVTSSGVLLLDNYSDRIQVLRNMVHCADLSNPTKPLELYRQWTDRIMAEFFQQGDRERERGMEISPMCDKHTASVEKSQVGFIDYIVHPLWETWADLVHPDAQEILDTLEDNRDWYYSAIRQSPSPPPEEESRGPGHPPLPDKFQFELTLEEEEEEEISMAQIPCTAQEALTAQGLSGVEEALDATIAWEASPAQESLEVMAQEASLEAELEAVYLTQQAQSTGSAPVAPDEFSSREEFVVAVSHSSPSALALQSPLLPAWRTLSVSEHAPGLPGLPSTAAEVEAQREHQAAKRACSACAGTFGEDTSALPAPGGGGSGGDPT

Broadly, the IC50 is the midpoint of a concentration-inhibition curve. With `CNC(=C[N+](=O)[O-])Nc1cccc([C@@H](Cc2ccncc2)c2ccc(OC)c(OC3CCCC3)c2)c1` [Example 2, (R)-N-{(EIZ)-1-{3-[1-[3-Cyclopentyloxy-4-methoxyphenyl]-2-(4-pyridinyl)ethyl]anilino}-2-nitroethenyl}-N-methylamine], the IC50 came to 3.3 nM.
The value for `CNC(=NC#N)Nc1cccc([C@@H](Cc2ccncc2)c2ccc(OC)c(OC3CCCC3)c2)c1` [Example 4, (R)-N"-Cyano-N'-{3-[1-[3-cyclopentyloxy-4-methoxyphenyl]-2-(4-pyridinyl)ethyl]phenyl}-N-methylamine] was 0.5 nM.

The values above are taken from patent publication US5859034A, “Tri-substituted phenyl compounds which have useful pharmaceutical activity” (Celltech Therapeutics, Limited, priority 1996, dated 1999).
